From PMC3853718 (Journal of Translational Medicine, 2013)

Test system: subjects with advanced malignancies
Assay: Phase 1 dose escalation: toxicity, safety and tolerability (DLT, MAD, RP2D, AEs)
Description: Subjects continued on treatment until there was disease progression, unacceptable toxicity, or the subject withdrew consent. The trial employed an accelerated titration design [16] starting at a dose of 0.33 mg/m^2 (one-sixth of the highest nontoxic dose in dogs).
the dose was doubled in sequential subjects until a DLT was observed or a subject experienced grade 2 toxicity [16]. In the case of an observed grade 2 toxicity, a second subject was enrolled at the same dose level. If the second subject also experienced a grade 2 toxicity, 2 additional subjects were accrued at that dose level for a total of 4 subjects. […] Each subject was allocated to only a single dose level of drug. Dose delay or modification was permitted based on laboratory and clinical assessment performed on the day of treatment.
Dose-limiting toxicities were determined during the first cycle for each dose level. A DLT was defined as any grade 3 or 4 hematologic toxicity lasting for at least 1 week, or as any grade 3 or 4 nonhematologic toxicity. […] Normal alkaline phosphatase level (< grade 1) at screening that rose to greater than or equal to grade 3; grade 1 or 2 alkaline phosphatase level at screening that rose to grade 4; grade 1 or 2 aspartate aminotransferase (AST) and/or alanine aminotransferase (ALT) levels at screening that doubled from baseline to become greater than or equal to grade 3; and any other abnormal nonhematology laboratory value greater than or equal to grade 3 that required medical intervention to treat, led to hospitalization, or persisted for at least 1 week were also considered DLTs.
Adverse events were graded based on the National Cancer Institute Common Terminology Criteria for Adverse Events (NCI CTCAE version 3.0) and were coded using the Medical Dictionary for Regulatory Activities (MedDRA version 13.0).

CCc1cnn2c(NCc3ccc[n+]([O-])c3)cc(N3CCCC[C@H]3CCO)nc12 [dinaciclib]
11 (100) n (%): TEAE: Subjects with any AE (12 mg/m^2 (n = 11), All grades)
1 (9) n (%): TEAE: Abdominal distension (12 mg/m^2 (n = 11), All grades) | TEAE: Back pain (12 mg/m^2 (n = 11), All grades) | TEAE: Diarrhea (12 mg/m^2 (n = 11), All grades) | TEAE: Dizziness (12 mg/m^2 (n = 11), All grades) | TEAE: Flatulence (12 mg/m^2 (n = 11), All grades) | TEAE: Anemia (12 mg/m^2 (n = 11), Grade 3–4) | TEAE: Hypokalemia (12 mg/m^2 (n = 11), Grade 3–4) | TEAE: Increased AST (12 mg/m^2 (n = 11), Grade 3–4)
1 (33) n (%): TEAE: Hyperglycemia (10 mg/m^2 (n = 3), Grade 3–4) | TEAE: Neutropenia (10 mg/m^2 (n = 3), Grade 3–4) | TEAE: Subjects with any AE (10 mg/m^2 (n = 3), Grade 3–4)
3 (27) n (%): TEAE: Hyperbilirubinemia (12 mg/m^2 (n = 11), All grades) | TEAE: Hyperuricemia (12 mg/m^2 (n = 11), All grades) | TEAE: Increased ALT (12 mg/m^2 (n = 11), All grades) | TEAE: Nausea (12 mg/m^2 (n = 11), All grades) | TEAE: Peripheral edema (12 mg/m^2 (n = 11), All grades) | TEAE: Vomiting (12 mg/m^2 (n = 11), All grades)
2 (40) n (%): TEAE: Anemia (14 mg/m^2 (n = 5), All grades) | TEAE: Hyperbilirubinemia (14 mg/m^2 (n = 5), All grades) | TEAE: Vomiting (14 mg/m^2 (n = 5), All grades)
1(9) n (%): TEAE: Hyperbilirubinemia (12 mg/m^2 (n = 11), Grade 3–4)
6 (55) n (%): TEAE: Anemia (12 mg/m^2 (n = 11), All grades)
4 (36) n (%): TEAE: Asthenia (12 mg/m^2 (n = 11), All grades) | TEAE: Fatigue (12 mg/m^2 (n = 11), All grades) | TEAE: Hyperglycemia (12 mg/m^2 (n = 11), All grades) | TEAE: Increased ALP (12 mg/m^2 (n = 11), All grades) | TEAE: Increased AST (12 mg/m^2 (n = 11), All grades) | TEAE: Neutropenia (12 mg/m^2 (n = 11), All grades) | TEAE: Pyrexia (12 mg/m^2 (n = 11), All grades) | TEAE: Urinary tract infection (12 mg/m^2 (n = 11), All grades)
4 (80) n (%): TEAE: Nausea (14 mg/m^2 (n = 5), All grades)
8 (73) n (%): TEAE: Subjects with any AE (12 mg/m^2 (n = 11), Grade 3–4)
3 (60) n (%): TEAE: Dehydration (14 mg/m^2 (n = 5), All grades) | TEAE: Neutropenia (14 mg/m^2 (n = 5), All grades)
5 (100) n (%): TEAE: Subjects with any AE (14 mg/m^2 (n = 5), All grades)
1 (20) n (%): TEAE: Asthenia (14 mg/m^2 (n = 5), All grades) | TEAE: Back pain (14 mg/m^2 (n = 5), All grades) | TEAE: Constipation (14 mg/m^2 (n = 5), All grades) | TEAE: Decreased appetite (14 mg/m^2 (n = 5), All grades) | TEAE: Dizziness (14 mg/m^2 (n = 5), All grades) | TEAE: Dyspnea (14 mg/m^2 (n = 5), All grades) | TEAE: Hyperglycemia (14 mg/m^2 (n = 5), All grades) | TEAE: Hyperuricemia (14 mg/m^2 (n = 5), All grades) | TEAE: Increased ALP (14 mg/m^2 (n = 5), All grades) | TEAE: Increased AST (14 mg/m^2 (n = 5), All grades)
0 n (%): TEAE: Hyperuricemia (10 mg/m^2 (n = 3), Grade 3–4) | TEAE: Hypokalemia (10 mg/m^2 (n = 3), Grade 3–4) | TEAE: Hypophosphatemia (10 mg/m^2 (n = 3), Grade 3–4) | TEAE: Increased ALP (10 mg/m^2 (n = 3), Grade 3–4) | TEAE: Increased ALT (10 mg/m^2 (n = 3), Grade 3–4) | TEAE: Increased AST (10 mg/m^2 (n = 3), Grade 3–4) | TEAE: Nausea (10 mg/m^2 (n = 3), Grade 3–4) | TEAE: Peripheral edema (10 mg/m^2 (n = 3), Grade 3–4) | TEAE: Pyrexia (10 mg/m^2 (n = 3), Grade 3–4) | TEAE: Urinary tract infection (10 mg/m^2 (n = 3), Grade 3–4) | TEAE: Vomiting (10 mg/m^2 (n = 3), Grade 3–4) | TEAE: Weight decreased (10 mg/m^2 (n = 3), Grade 3–4) | TEAE: Abdominal pain (12 mg/m^2 (n = 11), All grades) | TEAE: Dehydration (12 mg/m^2 (n = 11), All grades) | TEAE: Dyspnea (12 mg/m^2 (n = 11), All grades) | TEAE: Weight decreased (12 mg/m^2 (n = 11), All grades) | TEAE: Abdominal distension (12 mg/m^2 (n = 11), Grade 3–4) | TEAE: Abdominal pain (12 mg/m^2 (n = 11), Grade 3–4) | TEAE: Asthenia (12 mg/m^2 (n = 11), Grade 3–4) | TEAE: Back pain (12 mg/m^2 (n = 11), Grade 3–4) | TEAE: Constipation (12 mg/m^2 (n = 11), Grade 3–4) | TEAE: Cough (12 mg/m^2 (n = 11), Grade 3–4) | TEAE: Decreased appetite (12 mg/m^2 (n = 11), Grade 3–4) | TEAE: Dehydration (12 mg/m^2 (n = 11), Grade 3–4) | TEAE: Diarrhea (12 mg/m^2 (n = 11), Grade 3–4) | TEAE: Dizziness (12 mg/m^2 (n = 11), Grade 3–4) | TEAE: Dyspnea (12 mg/m^2 (n = 11), Grade 3–4) | TEAE: Fatigue (12 mg/m^2 (n = 11), Grade 3–4) | TEAE: Flatulence (12 mg/m^2 (n = 11), Grade 3–4) | TEAE: Increased ALP (12 mg/m^2 (n = 11), Grade 3–4) | TEAE: Increased ALT (12 mg/m^2 (n = 11), Grade 3–4) | TEAE: Nausea (12 mg/m^2 (n = 11), Grade 3–4) | TEAE: Peripheral edema (12 mg/m^2 (n = 11), Grade 3–4) | TEAE: Pyrexia (12 mg/m^2 (n = 11), Grade 3–4) | TEAE: Urinary tract infection (12 mg/m^2 (n = 11), Grade 3–4) | TEAE: Vomiting (12 mg/m^2 (n = 11), Grade 3–4) | TEAE: Weight decreased (12 mg/m^2 (n = 11), Grade 3–4) | TEAE: Abdominal distension (14 mg/m^2 (n = 5), All grades) | TEAE: Abdominal pain (14 mg/m^2 (n = 5), All grades) | TEAE: Cough (14 mg/m^2 (n = 5), All grades) | TEAE: Diarrhea (14 mg/m^2 (n = 5), All grades) | TEAE: Fatigue (14 mg/m^2 (n = 5), All grades) | TEAE: Flatulence (14 mg/m^2 (n = 5), All grades) | TEAE: Hypokalemia (14 mg/m^2 (n = 5), All grades) | TEAE: Hypophosphatemia (14 mg/m^2 (n = 5), All grades) | TEAE: Increased ALT (14 mg/m^2 (n = 5), All grades) | TEAE: Peripheral edema (14 mg/m^2 (n = 5), All grades) | TEAE: Pyrexia (14 mg/m^2 (n = 5), All grades) | TEAE: Urinary tract infection (14 mg/m^2 (n = 5), All grades) | TEAE: Weight decreased (14 mg/m^2 (n = 5), All grades)
2 (18) n (%): TEAE: Constipation (12 mg/m^2 (n = 11), All grades) | TEAE: Cough (12 mg/m^2 (n = 11), All grades) | TEAE: Decreased appetite (12 mg/m^2 (n = 11), All grades) | TEAE: Hypokalemia (12 mg/m^2 (n = 11), All grades) | TEAE: Hypophosphatemia (12 mg/m^2 (n = 11), All grades) | TEAE: Hyperglycemia (12 mg/m^2 (n = 11), Grade 3–4) | TEAE: Hyperuricemia (12 mg/m^2 (n = 11), Grade 3–4) | TEAE: Hypophosphatemia (12 mg/m^2 (n = 11), Grade 3–4) | TEAE: Neutropenia (12 mg/m^2 (n = 11), Grade 3–4)
